In patent publication US20110110958A1, “COMPOSITIONS AND METHODS FOR THE TREATMENT OF NEOPLASIA” (UNIVERSITY OF FLORIDA RESEARCH FOUNDATION, priority 2007, published 2011):
Each block holds one compound with its values, some of them ahead of it.

Columns and labels:
[1] = system: ATF-4 and CHOP in U87 cells; experiment: Immunofluorescence of ATF-4 and CHOP, U87; type: cell-based, human
[2] = system: DU145 prostate carcinoma cells; experiment: Cytotoxicity on DU145; type: cell-based
colon cancer cells = experiment: Cytotoxicity to colon cancer cells (FIG. 13); type: cell-based
GL261 glioma cells = experiment: Cytotoxicity on GL261; type: cell-based, mouse; settings: increasing concentrations
Experimental: (§1) T98G, U87MG, U118MG, A172, LN18, DBTRG-05MG, LN229, M059J, WT4 human glioma cell lines were purchased from American Type Culture Collection (Rockville, Md.). Cell culture was conducted according to the ATCC's recommendations, available at www.atcc.org. Normal human astrocytes (NHA) were purchased from Lonza Bioscience (Switzerland). Cell cultures were grown according to the vendor's recommendations for each cell line. GL261 mouse glioma cell line was obtained from NCI (Frederick, Md.) and was grown in RPMI (Gibco BRL, Grand Island, N.Y.) containing 10% FBS, 1% Penicillin-Streptomycin, and 4 mM L-glutamine at 37° C. with 5% CO2.

[3] = system: ATF-4 protein levels in U118MG cell line; experiment: Western blot of ATF-4, U118MG; type: cell-based, human; settings: U118MG, 24, 48, and 72 hours after J1 (10 and 25 μM)
Experimental: (§2) Whole cell protein extracts were prepared using cold lysis buffer consisting of: M-Per mammalian protein extraction reagent (Pierce Biochemical, Rockford, Ill.), 30 mM sodium fluoride, 1 mM sodium vanadate, and protease inhibitor cocktail tablets (Boehringer Mannheim). Samples were incubated on ice for 10 minutes and supernatants were recovered by centrifuging at 14,000 rpm at 4° C. for 20 minutes. Protein concentrations were determined by the BCA method (Pierce Biochemical). Proteins were separated on SDS-PAGE and transferred to nitrocellulose membrane (Osmonics, Minnetonka, Minn.). Blocking reagent is 5% nonfat dry milk in PBS (pH 7.4). Washing buffer is PBS (pH 7.4) with 0.1% Tween 20. Primary antibodies (p53, ATM, CHK1, CHK2) are commercially available. JAZ primary antibodies are described in Yang et al., Blood 108:4136-4145, 2006. The respective HRP-conjugated secondary antibodies were purchased from Boehringer Mannheim. Signals are visualized by using ECL chemiluminescence (Amersham, Indianapolis, Ind.) or Supersignal chemiluminescence (Pierce Biochemical) and Kodak X-OMAT films. Data acquired as integrated densitometric values are transformed to percentages of the values obtained from control samples visualized on the same blot.

leukemia cells = experiment: Cytotoxicity to leukemia cells (FIG. 13); type: cell-based
U87MG glioma cells [4] = experiment: DNA laddering in glioma cells; type: cell-based, human; settings: J1 25 μM
[5] = system: primary cultured hepatocytes; experiment: Cytotoxicity on primary cultured hepatocytes; type: cell-based; settings: 24 hours after drug treatment
[6] = system: ATF-4 protein levels in U87 glioma cells; experiment: Western blot of ATF-4, U87; type: cell-based, human; settings: U87, 24, 48, and 72 hours after J1 (10 and 25 μM)
Experimental: as §2

WT4 glioma cells = experiment: Cell viability assay (trypan blue exclusion), WT4; type: cell-based, human; settings: p53-expressing and p53-non-expressing WT4 cells, J1 25 μM
Experimental: as §1
(§3) J1 and its derivatives were provided by NCI developmental therapeutic program repository or purchased from Sigma-Aldrich Inc. Temozolomide (TMZ) was obtained from Schering-Plough (Kenilworth, N.J.). Both J1 and TMZ were dissolved in DMSO and stock solution of 100 mM were made.
(§4) JAZ siRNA and control siRNA were purchased from Invitrogen. […]
(§5) Cell viability was measured by first seeding tumor cells in 24-well dishes at a density of 10,000 cells per well. […] Forty-eight hours after transduction, cells were collected by trypsinization followed by the trypan blue exclusion method (Yang et al., J Biol Chem 1999; 274:27399-406) and counted manually using a hemacytometer. […]

glioma cell viability = experiment: GI50 comparison of J1 with FDA approved chemotherapy drugs (FIG. 12); type: cell-based; settings: read-out: GI50 (concentration of drug that causes 50% growth inhibition)
T98G glioma cells = experiment: Cell viability assay (trypan blue exclusion), T98G; type: cell-based, human; settings: mutant-type p53-expressing T98G cells after J1 treatment
Experimental: as §1, §3, §4, §5

[7] = system: JAZ, p53, and Bax protein levels; experiment: Western blot of JAZ, p53 and Bax; type: cell-based; settings: J1 25 μM
Experimental: as §2

U87 glioma cells = experiment: Quantitative proteomics (iTRAQ 4plex), U87; type: cell-based, human
Experimental: (§6) FIGS. 14A and 14B are tables showing quantitative proteomic analysis of proteome changes 48 hours after J1 (65 μM, NCI) treatment on U87 (FIG. 14A) and U118 (FIG. 14B) glioma cells. To further explore the molecular mechanism of J1's cytotoxic effects on glioma cells, a quantitative proteomics analysis (iTRAQ 4plex) was conducted after J1 treatment. There were four groups: untreated U87 and U118 glioma cells and J1 treated U87 and U118 glioma cells at 48 hours. Each group was in triplicate. […] HSPA5 activation is a marker for Unfolded Protein Response (UPR), a pathway that can contribute to cell death or cell survival.

lung cancer cells = experiment: Cytotoxicity to lung cancer cells (FIG. 13); type: cell-based
U118 glioma cells = experiment: Quantitative proteomics (iTRAQ 4plex), U118; type: cell-based, human
Experimental: as §6

HepG2 cells = experiment: Cytotoxicity on HepG2; type: cell-based, Human; settings: dose and time-dependent
U87MG glioma cells [8] = experiment: Cell viability assay (trypan blue exclusion), U87MG; type: cell-based, human; set-up: viable U87 cells after JAZ siRNA plus J1: dose or concentration left out as unconfirmed
Experimental: as §1, §3
JAZ siRNA and control siRNA were purchased from Invitrogen. Cell transfection was performed by using METAFECTENE PRO (Biontex Laboratories GmbH, Germany) following the manufacturer's instructions. Briefly, 40 pmoles of JAZ (or control) siRNA was added into 30 μl serum-free medium then mixed with METAFECTENE PRO solution and incubated for 15-20 minutes at room temperature. The final siRNA-lipid complex solution was added into one 24-well-plate well. The complex-containing medium was replaced with serum-containing medium at 3 hours after the transfection to reduce the toxicity.
Cell viability was measured by first seeding tumor cells in 24-well dishes at a density of 10,000 cells per well. Two days later, cells were transduced with JAZ (or control) siRNA. Forty-eight hours after transduction, cells were collected by trypsinization followed by the trypan blue exclusion method (Yang et al., J Biol Chem 1999; 274:27399-406) and counted manually using a hemacytometer. This experiment was repeated six times for each cell line and each time in triplicate.

[9] = system: LNCAP prostate carcinoma cells; experiment: Cytotoxicity on LNCAP; type: cell-based
glioma = experiment: In vitro glioma cytotoxic effects of J1 analogues (FIG. 18); type: cell-based

GI50 (glioma cell viability): 10 µM
Compound: O=C(Nc1ccc(Cl)c(Cl)c1)Nc1ccccc1O [J1, N′-(2-hydroxy-phenyl)-N-(3,4-dichlorophenyl)Urea]
nuclear ATF-4 staining ([1]; 12 hours after J1 (25 μM)): significantly increased
CHOP staining ([1]; 24 hours after J1 (25 μM)): significantly increased
cytotoxic effects on DU145 cells [2]: strong dose and time-dependent cytotoxic effects
cytotoxicity to colon cancer cells (colon cancer cells): cytotoxic
cytotoxic effects on GL261 glioma cells (GL261 glioma cells): progressively greater cytotoxic effects
ATF-4 protein levels [3]: time- and dose dependent increase
cytotoxicity to leukemia cells (leukemia cells): cytotoxic
DNA laddering formation (U87MG glioma cells [4]): increased DNA laddering formation
cytotoxic effects on primary cultured hepatocytes [5]: minimal cytotoxic effects
ATF-4 protein levels [6]: time- and dose dependent increase
viable tumor cells (WT4 glioma cells): time-dependent significant reduction of viable tumor cells
viable tumor cells, time and dose course (T98G glioma cells): time- and dose-dependent significant reduction of viable tumor cells
JAZ, p53, and Bax protein levels [7]: did not alter
HSPA5 (GRP78, Bip) protein levels (U87 glioma cells; U87, 48 hours after J1 (65 μM)): consistently and significantly increased
PLOD2 protein level (U87 glioma cells; U87 glioma cells): significantly down-regulated
proteins up-regulated by J1 treatment (U87 glioma cells; U87 glioma cells): PBEF1, HSPA5, ANXA1, TPI1, ANXA5, HSPA9, TGM2, NPM1, and RPLP2
cytotoxicity to lung cancer cells (lung cancer cells): cytotoxic
HSPA5 (GRP78, Bip) protein levels (U118 glioma cells; U118, 48 hours after J1 (65 μM)): consistently and significantly increased
proteins up-regulated by J1 treatment (U118 glioma cells; U118 glioma cells): HSPA5, PBEF1, HSPA1B, VIM, LMNA and HIST2H3PS2
cytotoxic effects on HepG2 cells (HepG2 cells): significant cytotoxic effects
viable U87 cells after JAZ siRNA plus J1 (U87MG glioma cells [8]; 24 hours after JAZ siRNA transfection, J1 for additional 24 hours): did not lead to further reduction of viable U87 cells
viable U87 cells (U87MG glioma cells [8]; 48 hours after J1 treatment (10 μM)): reduction of viable U87 cells
viable tumor cells, time and dose course (U87MG glioma cells [8]; U87MG cells after J1 treatment): time- and dose-dependent significant reduction of viable tumor cells
cytotoxic effects on LNCAP cells [9]: strong dose and time-dependent cytotoxic effects

Compound: O=C(Nc1ccc(Cl)cc1)Nc1ccc(Cl)c(Cl)c1 [J1-h, 3-(4-chloro-phenyl)-1-(3,4-dichlorophenyl) Urea]
cytotoxic effects on DU145 cells [2]: strong dose and time-dependent cytotoxic effects
cytotoxic effects on GL261 glioma cells (GL261 glioma cells): progressively greater cytotoxic effects
in vitro glioma cytotoxic effects (glioma): glioma cytotoxic effects
cytotoxic effects on primary cultured hepatocytes [5]: minimal cytotoxic effects
cytotoxic effects on HepG2 cells (HepG2 cells): significant cytotoxic effects
cytotoxic effects on LNCAP cells [9]: strong dose and time-dependent cytotoxic effects

GI50 (glioma cell viability): 100 µM
Compound: Cn1nnc2c(C(N)=O)ncn2c1=O [Temozolomide, reference compound]
